Experimental data as given in US20230357239A1, “PYRIDO[2,3-D]PYRIMIDIN-4-AMINES AS SOS1 INHIBITORS” (Bayer Aktiengesellschaft, priority 2020, published 2023).

target: human SOS1 (SOS1) with human K-RasG12C (Homo sapiens (Human), UniProt Q07889); experiment: hK-RasG12C interaction assay with hSOS1 (HTRF); assay type: binding; conditions: GST-hK-RasG12C and His-hSOS1, 60 min incubation at 20° C, mean, read-out: K-RasG12C - SOS interaction assay IC50 - [mol/l] (mean)
Method: Biochemical Assay: hK-RasG12C Interaction Assay with hSOS1
This assay quantifies the equilibrium interaction of human SOS1 (SOS1) with human K-Ras^G12C (K-RasG12C). Detection of the interaction is achieved by measuring homogenous time-resolved fluorescence resonance energy transfer (HTRF) from antiGST-Europium (FRET donor) bound to GST-K-RasG12C to anti-6His-XL665 bound to His-tagged hSOS1 (FRET-acceptor).
The assay buffer containes 5 mM HEPES pH 7.4 (Applichem), 150 mM NaCl (Sigma), 10 mM EDTA (Promega), 1 mM DTT (Thermofisher), 0.05% BSA Fraction V, pH 7.0, (ICN Biomedicals), 0.0025% (v/v) Igepal (Sigma) and 100 mM KF (FLUKA).
Concentrations of protein batches used are optimized to be within the linear range of the HTRF signal. A Ras working solution is prepared in assay buffer containing typically 10 nM GST-hK-RasG12C and 2 nM antiGST-Eu(K) (Cisbio, France). A SOS1 working solution is prepared in assay buffer containing typically 20 nM His-hSOS1 and 10 nM anti-6His-XL665 (Cisbio, France). An inhibitor control solution is prepared in assay buffer containing 10 nM anti-6His-XL665 without SOS1.
Fifty nl of a 100-fold concentrated solution of the test compound in DMSO are transferred into a black microtiter test plate (384 or 1536, Greiner Bio-One, Germany).
For this, either a Hummingbird liquid handler (Digilab, MA, USA) or an Echo acoustic system (Labcyte, CA, USA) is used.
All steps of the assay are performed at 20° C. A volume of 2.5 μl of the Ras working solution is added to all wells of the test plate using a Multidrop dispenser (Thermo Labsystems). After 2 min preincubation, 2.5 μl of the SOS1 working solution are added to all wells except for those wells at the side of the test plate that are subsequently filled with 2.5 μl of the inhibitor control solution. After 60 min incubation the fluorescence is measured with a Pherastar (BMG, Germany) using the HTRF module (excitation 337 nm, emission 1: 620 nm, emission 2: 665 nm).
The ratiometric data (emission 2 divided by emission 1) are normalized using the controls (DMSO=0% inhibition, inhibition control wells with inhibitor control solution=100% inhibition). […] IC50 values are calculated by 4-Parameter fitting using a commercial software package (Genedata Screener, Switzerland).

human SOS1 (SOS1) with human K-RasG12C, sequence (Q07889 564-1049): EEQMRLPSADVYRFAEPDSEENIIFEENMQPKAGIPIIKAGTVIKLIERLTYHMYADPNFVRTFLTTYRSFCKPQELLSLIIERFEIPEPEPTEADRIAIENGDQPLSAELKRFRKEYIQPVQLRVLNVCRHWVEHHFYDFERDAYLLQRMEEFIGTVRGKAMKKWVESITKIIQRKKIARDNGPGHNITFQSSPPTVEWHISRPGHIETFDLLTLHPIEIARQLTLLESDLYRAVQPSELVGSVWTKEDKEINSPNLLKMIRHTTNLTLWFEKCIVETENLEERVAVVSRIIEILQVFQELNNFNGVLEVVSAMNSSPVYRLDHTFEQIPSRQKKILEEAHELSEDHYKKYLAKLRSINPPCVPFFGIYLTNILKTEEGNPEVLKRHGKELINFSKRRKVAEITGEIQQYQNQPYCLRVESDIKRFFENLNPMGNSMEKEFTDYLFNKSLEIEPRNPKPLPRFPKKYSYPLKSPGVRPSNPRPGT

Going from `Cc1nc(N[C@H](C)c2cccc(C(F)(F)F)c2C)c2cc(N3CCCS3(=O)=O)c(C)nc2n1` [Example 58, 2-[2,7-dimethyl-4-({(1R)-1-[2-methyl-3-(trifluoromethyl)phenyl]ethyl}amino)pyrido[2,3-d]pyrimidin-6-yl]-1 lambda^6,2-thiazolidine-1,1-dione] to `Cc1nc(N[C@H](C)c2cccc(C(F)(F)C(C)(C)O)c2F)c2cc(N3CCCS3(=O)=O)c(C)nc2n1` [Example 59, 2-[4-({(1R)-1-[3-(1,1-difluoro-2-hydroxy-2-methylpropyl)-2-fluorophenyl]ethyl}amino)-2,7-dimethylpyrido[2,3-d]pyrimidin-6-yl]-1 lambda^6,2-thiazolidine-1,1-dione], the IC50 falls from 15.9 nM to 7.23 nM (2.2-fold).

`CC(=O)N1CCC(c2cnc3nc(C)nc(N[C@H](C)c4cccc(C(F)F)c4F)c3c2)CC1` [Example 44, 1-{4-[4-({(1R)-1-[3-(difluoromethyl)-2-fluorophenyl]ethyl}amino)-2-methylpyrido[2,3-d]pyrimidin-6-yl]piperidin-1-yl}ethan-1-one] and `CC(=O)N1CCC(c2cc3c(N[C@H](C)c4cccc(C(F)F)c4F)nc(C)nc3nc2C)CC1` [Example 57, 1-{4-[4-({(1R)-1-[3-(difluoromethyl)-2-fluorophenyl]ethyl}amino)-2,7-dimethylpyrido[2,3-d]pyrimidin-6-yl]piperidin-1-yl}ethan-1-one] are within 1.5-fold of each other in IC50: 8.43 nM for the first, 9.81 nM for the second.

Compared with `CC(=O)N1CC2(C1)CN(c1cc3c(N[C@H](C)c4cccc(C(F)(F)F)c4C)nc(C)nc3nc1C(F)(F)F)C2` [Example 71, 1-{6-[2-methyl-4-({(1R)-1-[2-methyl-3-(trifluoromethyl)phenyl]ethyl}amino)-7-(trifluoromethyl)pyrido[2,3-d]pyrimidin-6-yl]-2,6-diazaspiro[3.3]heptan-2-yl}ethan-1-one], `Cc1nc(N[C@H](C)c2cccc(C(F)(F)F)c2C)c2cc(N3CC4(CN(C(=O)OC(C)(C)C)C4)C3)cnc2n1` [Example 7, tert-butyl 6-[2-methyl-4-({(1R)-1-[2-methyl-3-(trifluoromethyl)phenyl]ethyl}amino)pyrido[2,3-d]pyrimidin-6-yl]-2,6-diazaspiro[3.3]heptane-2-carboxylate] is 31-fold higher in IC50: 5.78 nM for the first, 180 nM for the second.

First: Cc1nc(N[C@H](C)c2cccc(C(F)(F)F)c2C)c2cc(-c3cncnc3)cnc2n1 [Example 45, 2-methyl-N-{(1R)-1-[2-methyl-3-(trifluoromethyl)phenyl]ethyl}-6-(pyrimidin-5-yl)pyrido[2,3-d]pyrimidin-4-amine]
Second: Cc1nc(N[C@H](C)c2cccc(C(F)(F)F)c2C)c2cc(Br)cnc2n1 [Example 6, 6-bromo-2-methyl-N-{(1R)-1-[2-methyl-3-(trifluoromethyl)phenyl]ethyl}pyrido[2,3-d]pyrimidin-4-amine]
The IC50 of the first is 12-fold lower: 21.1 nM for the first, 251 nM for the second.

First: COc1nc2nc(C)nc(N[C@H](C)c3cccc(C(F)(F)F)c3C)c2cc1C1CCN(C(C)=O)CC1 [Example 22, 1-{4-[7-methoxy-2-methyl-4-({(1R)-1-[2-methyl-3-(trifluoromethyl)phenyl]ethyl}amino)pyrido[2,3-d]pyrimidin-6-yl]piperidin-1-yl}ethan-1-one]
Second: COc1cc2c(N[C@H](C)c3cccc(C(F)(F)F)c3C)nc(C)nc2nc1C [Example 38, 6-methoxy-2,7-dimethyl-N-{(1R)-1-[2-methyl-3-(trifluoromethyl)phenyl]ethyl}pyrido[2,3-d]pyrimidin-4-amine]
The IC50 of the first is 17-fold higher: 805 nM for the first, 46.3 nM for the second. The second is the more potent here.

Going from `CC(=O)N1CC=C(c2cnc3nc(C)nc(N[C@H](C)c4cccc(C(F)(F)F)c4C)c3c2)C1` [Example 30, 1-{3-[2-methyl-4-({(1R)-1-[2-methyl-3-(trifluoromethyl)phenyl]ethyl}amino)pyrido[2,3-d]pyrimidin-6-yl]-2,5-dihydro-1H-pyrrol-1-yl}ethan-1-one] to `CC(=O)N1CC=C(c2cnc3nc(C)nc(N[C@H](C)c4cccc(C(F)(F)F)c4C)c3c2)CC1` [Example 26, 1-{4-[2-methyl-4-({(1R)-1-[2-methyl-3-(trifluoromethyl)phenyl]ethyl}amino)pyrido[2,3-d]pyrimidin-6-yl]-3,6-dihydropyridin-1(2H)-yl}ethan-1-one hydrogen], the IC50 falls from 38 nM to 5.75 nM (6.6-fold). The second is the more potent here.

Going from `CC(=O)N1C[C@H]2C[C@@H]1CN2c1cnc2nc(C)nc(N[C@H](C)c3cccc(C(F)(F)C(C)(C)O)c3F)c2c1` [Example 51, 1-{(1 R,4R)-5-[4-({(1R)-1-[3-(1,1-difluoro-2-hydroxy-2-methylpropyl)-2-fluorophenyl]ethyl}amino)-2-methylpyrido[2,3-d]pyrimidin-6-yl]-2,5-diazabicyclo[2.2.1]heptan-2-yl}ethan-1-one] to `CC(=O)N1C[C@@H]2C[C@H]1CN2c1cnc2nc(C)nc(N[C@H](C)c3cccc(C(F)(F)C(C)(C)O)c3F)c2c1` [Example 50, 1-{(1 S,4S)-5-[4-({(1R)-1-[3-(1,1-difluoro-2-hydroxy-2-methylpropyl)-2-fluorophenyl]ethyl}amino)-2-methylpyrido[2,3-d]pyrimidin-6-yl]-2,5-diazabicyclo[2.2.1]heptan-2-yl}ethan-1-one], the IC50 falls from 9.79 nM to 2.93 nM (3.3-fold).

First: CC(=O)N1C[C@@H]2C[C@H]1CN2c1cnc2nc(C)nc(N[C@H](C)c3cccc(C(F)(F)F)c3C)c2c1 [Example 14, 1-{(1S,4S)-5-[2-methyl-4-({(1R)-1-[2-methyl-3-(trifluoromethyl)phenyl]ethyl}amino)pyrido[2,3-d]pyrimidin-6-yl]-2,5-diazabicyclo[2.2.1]heptan-2-yl}ethan-1-one]
Second: COc1cnc2nc(C)nc(N[C@H](C)c3cccc(C(F)(F)F)c3C)c2c1 [Example 32, 6-methoxy-2-methyl-N-{(1R)-1-[2-methyl-3-(trifluoromethyl)phenyl]ethyl}pyrido[2,3-d]pyrimidin-4-amine]
The IC50 of the first is 13-fold lower: 5.15 nM for the first, 66.4 nM for the second. The first is the more potent here.

Going from `CC(=O)N1CC=C(c2cnc3ncnc(N[C@H](C)c4cccc(C(F)(F)F)c4C)c3c2)CC1` [Example 12, 1-{4-[4-({(1R)-1-[2-methyl-3-(trifluoromethyl)phenyl]ethyl}amino)pyrido[2,3-d]pyrimidin-6-yl]-3,6-dihydropyridin-1(2H)-yl}ethan-1-one] to `CC(=O)N1CC2(CC=C(c3cnc4nc(C)nc(N[C@H](C)c5cccc(C(F)(F)F)c5C)c4c3)CC2)C1` [Example 27, 1-{7-[2-methyl-4-({(1R)-1-[2-methyl-3-(trifluoromethyl)phenyl]ethyl}amino)pyrido[2,3-d]pyrimidin-6-yl]-2-azaspiro[3.5]non-6-en-2-yl}ethan-1-one], the IC50 rises from 4.06 nM to 7.96 nM (2-fold).

`CC(=O)N1CCN(c2cc3c(N[C@H](C)c4cccc(C(F)(F)C(C)(C)O)c4F)nc(C)nc3nc2C)CC1` [Example 67, 1-{4-[4-({(1R)-1-[3-(1,1-difluoro-2-hydroxy-2-methylpropyl)-2-fluorophenyl]ethyl}amino)-2,7-dimethylpyrido[2,3-d]pyrimidin-6-yl]piperazin-1-yl}ethan-1-one] and `CC(=O)N1CC=C(c2cc3c(N[C@H](C)c4cccc(C(F)(F)C(C)(C)O)c4F)nc(C)nc3nc2C)CC1` [Example 65, 1-{4-[4-({(1R)-1-[3-(1,1-difluoro-2-hydroxy-2-methylpropyl)-2-fluorophenyl]ethyl}amino)-2,7-dimethylpyrido[2,3-d]pyrimidin-6-yl]-3,6-dihydropyridin-1(2H)-yl}ethan-1-one] are within 1.5-fold of each other in IC50: 6.23 nM for the first, 5.72 nM for the second.
